Assay results published in patent US20120115896A1, “ISOGENIC HUMAN CELL LINES COMPRISING MUTATED CANCER ALLELES AND PROCESS USING THE CELL LINES” (priority 2008, published 2012).
“And” between values parts separate entries of the source, which are not always exact repeats. Equal values may be shown once. Read-outs that look alike come from different tables or passages of the source.

Tests used:
[1] = test system: hTERT-HME1 cells carrying BRAF (V600E) KI; experiment: Drug assay: cell viability by ATP content (96 h), KI versus parental cells; ΔKI pharmarray analysis; details: for pharmarray: differential response of BRAF mutated cells versus WT: hTERT-HME1, FIG. 5H
[2] = test system: hTERT-HME1 cells carrying KRAS (G13D) KI; experiment: as above; details: for pharmarray: differential response of KRAS mutated cells versus WT: hTERT-HME1, FIG. 5H
[3] = test system: hTERT-HME1 DKI cells carrying PIK3CA (H1047R) and EGFR (delE746-A750); experiment: Drug assay: cell viability by ATP content (96 h), DKI versus parental cells; ΔKI pharmarray analysis
[4] = test system: hTERT-HME1 cells carrying EGFR (delE746-A750) KI; experiment: Drug assay: cell viability by ATP content (CellTiter-Glo, 96 h), KI versus parental cells; ΔKI pharmarray analysis
[5] = test system: hTERT-HME1 cells carrying PIK3CA (E545K and H1047R) KI; experiment: Drug assay: cell viability by ATP content (96 h) and Hoechst/propidium iodide staining, KI versus parental cells; ΔKI pharmarray analysis

CC(C)c1nc(N(C)S(C)(=O)=O)nc(-c2ccc(F)cc2)c1/C=C/[C@@H](O)C[C@@H](O)CC(=O)O [rosuvastatin, Rosuvastatin Ca]
pharmarray: differential response of BRAF mutated cells versus WT [1]: more resistant

O=C([O-])C[C@H](O)C[C@H](O)/C=C/c1c(C2CC2)nc2ccccc2c1-c1ccc(F)cc1.O=C([O-])C[C@H](O)C[C@H](O)/C=C/c1c(C2CC2)nc2ccccc2c1-c1ccc(F)cc1.[Ca+2] [itavastatin, Itavastatin Ca]
ΔKI KRAS [2]: 0
ΔKI BRAF [1]: 0
pharmarray: differential response of BRAF mutated cells versus WT [1]: more resistant
ΔKI BRAF ([1]; listed as OGC-072): −7.2
ΔKI PIK3CA + EGFR [3]: 0
ΔKI EGFR [4]: 0
ΔKI PIK3CA [5]: 0

CCCCCc1cc(O)c2c(c1)OC(C)(C)[C@@H]1CCC(C)=C[C@@H]21 [THC]
ΔKI KRAS [2]: 0
ΔKI BRAF [1]: 0.3
ΔKI BRAF ([1]; Log(M) −4.60): 0.46
ΔKI BRAF ([1]; listed as OGC-089): 0.88
ΔKI PIK3CA + EGFR [3]: 0
ΔKI EGFR [4]: 0
ΔKI PIK3CA [5]: 0

Tamoxifene Citrate
ΔKI KRAS [2]: 0
ΔKI KRAS ([2]; Log(M) −4.75): 0
ΔKI KRAS ([2]; Log(M) −5.35): 0
ΔKI BRAF [1]: 0
ΔKI BRAF ([1]; Log(M) −4.75): 0
ΔKI BRAF ([1]; Log(M) −5.35): 0
ΔKI PIK3CA + EGFR [3]: 0.96 and 0.78
ΔKI PIK3CA + EGFR ([3]; Log(M) −4.75): 0
ΔKI PIK3CA + EGFR ([3]; Log(M) −5.35): −0.92
ΔKI EGFR [4]: 0
ΔKI EGFR ([4]; Log(M) −4.75): 0
ΔKI EGFR ([4]; Log(M) −5.35): −0.54
ΔKI PIK3CA ([5]; Log(M) −4.75): 0
ΔKI PIK3CA ([5]; Log(M) −5.35): 0.9

O=C1CCC(N2C(=O)c3ccccc3C2=O)C(=O)N1 (stereo not drawn) [OGC-065]
ΔKI KRAS [2]: 0
ΔKI KRAS ([2]; Log(M) −2.05): 0
ΔKI KRAS ([2]; Log(M) −3.35): 0
ΔKI BRAF [1]: 0
ΔKI BRAF ([1]; Log(M) −2.05): 0
ΔKI BRAF ([1]; Log(M) −3.35): 0
ΔKI PIK3CA + EGFR ([3]; Log(M) −2.05): 0
ΔKI PIK3CA + EGFR ([3]; Log(M) −3.35): −0.8
ΔKI EGFR [4]: 0
ΔKI EGFR ([4]; Log(M) −2.05): 0
ΔKI EGFR ([4]; Log(M) −3.35): −0.68
ΔKI PIK3CA [5]: 0
ΔKI PIK3CA ([5]; Log(M) −2.05): 1.9
ΔKI PIK3CA ([5]; Log(M) −3.35): 0

CN(C)CCCn1cc(C2=C(c3c[nH]c4ccccc34)C(=O)NC2=O)c2ccccc21 [Bisindolylmaleimide I]
ΔKI KRAS [2]: 0
ΔKI KRAS ([2]; Log(M) −5.70): 0
ΔKI BRAF [1]: 0
ΔKI BRAF ([1]; Log(M) −5.70): 0
ΔKI PIK3CA + EGFR [3]: 0
ΔKI PIK3CA + EGFR ([3]; Log(M) −5.70): 0
ΔKI EGFR [4]: 0
ΔKI EGFR ([4]; Log(M) −5.70): 0
ΔKI PIK3CA [5]: 0
ΔKI PIK3CA ([5]; Log(M) −5.70): 0

COc1cccc(-c2cc(=O)c3ccccc3o2)c1N [PD 98059]
ΔKI KRAS ([2]; Log(M) −3.57): 0
ΔKI KRAS ([2]; Log(M) −4.05): 0
ΔKI KRAS ([2]; Log(M) −4.52): 0
ΔKI BRAF ([1]; Log(M) −3.57): 0
ΔKI BRAF ([1]; Log(M) −4.05): 0
ΔKI BRAF ([1]; Log(M) −4.52): 4
ΔKI PIK3CA + EGFR ([3]; Log(M) −3.57): 0
ΔKI PIK3CA + EGFR ([3]; Log(M) −4.05): 0
ΔKI PIK3CA + EGFR ([3]; Log(M) −4.52): 0
ΔKI EGFR ([4]; Log(M) −3.57): 0
ΔKI EGFR ([4]; Log(M) −4.05): 3.5
ΔKI EGFR ([4]; Log(M) −4.52): 0
ΔKI PIK3CA ([5]; Log(M) −3.57): 0
ΔKI PIK3CA ([5]; Log(M) −4.05): 0
ΔKI PIK3CA ([5]; Log(M) −4.52): 0

COc1ccc(-c2cc(=O)c3c(O)c(OC)c(O)cc3o2)cc1OC [Eupatiline]
ΔKI KRAS [2]: 0
ΔKI KRAS ([2]; Log(M) −3.97): 0
ΔKI BRAF [1]: −0.1
ΔKI BRAF ([1]; Log(M) −3.97): 2.9
ΔKI PIK3CA + EGFR [3]: 0
ΔKI PIK3CA + EGFR ([3]; Log(M) −3.97): 0
ΔKI EGFR [4]: 0
ΔKI EGFR ([4]; Log(M) −3.97): 0
ΔKI PIK3CA [5]: −1.66
ΔKI PIK3CA ([5]; Log(M) −3.97): 0

CCCCC/C=C\C/C=C\C/C=C\C/C=C\CCC(C)C(=O)NCCF (stereo not drawn) [Met-F-AEA]
ΔKI KRAS [2]: 0
ΔKI BRAF ([1]; listed as OGC-079): 0.3
ΔKI PIK3CA + EGFR [3]: 0
ΔKI EGFR [4]: 0
ΔKI PIK3CA [5]: 0

COc1ccc2c(c1)c(CC(=O)O)c(C)n2C(=O)c1ccc(Cl)cc1 [indomethacin, Indomethacin]
extended analysis of effect on PIK3CA KI versus WT cells (viability, apoptosis) ([5]; hTERT-HME1, 96 h, ATP assay, Hoechst/propidium iodide, FIG. 19): acts preferentially on cells carrying the PIK3CA mutation with both anti-proliferative and pro-apoptotic effects
pharmarray: differential response of PIK3CA mutated cells versus WT ([5]; hTERT-HME1, FIG. 5G): unexpectedly active on PIK3CA mutated cells

Sunitinib Maleate
ΔKI KRAS ([2]; Log(M) −4.82): 0
ΔKI KRAS ([2]; Log(M) −5.30): 0
ΔKI KRAS ([2]; Log(M) −5.78): 0
ΔKI BRAF ([1]; Log(M) −4.82): 0
ΔKI BRAF ([1]; Log(M) −5.30): 4.42
ΔKI BRAF ([1]; Log(M) −5.78): 0

Sodium Phenylbutyrate
ΔKI KRAS ([2]; Log(M) −1.97): 0
ΔKI KRAS ([2]; Log(M) −2.44): 0
ΔKI KRAS ([2]; Log(M) −2.92): 0
ΔKI BRAF ([1]; Log(M) −1.97): 0
ΔKI BRAF ([1]; Log(M) −2.44): 0
ΔKI BRAF ([1]; Log(M) −2.92): 0
ΔKI PIK3CA + EGFR ([3]; Log(M) −1.97): 0
ΔKI PIK3CA + EGFR ([3]; Log(M) −2.44): 0
ΔKI PIK3CA + EGFR ([3]; Log(M) −2.92): 0
ΔKI EGFR ([4]; Log(M) −1.97): 0
ΔKI EGFR ([4]; Log(M) −2.44): 0
ΔKI EGFR ([4]; Log(M) −2.92): 0
ΔKI PIK3CA ([5]; Log(M) −1.97): 0
ΔKI PIK3CA ([5]; Log(M) −2.44): 0
ΔKI PIK3CA ([5]; Log(M) −2.92): 0

Erybraedin C
ΔKI KRAS [2]: 0
ΔKI KRAS ([2]; Log(M) −4.70): 0
ΔKI BRAF [1]: 0
ΔKI BRAF ([1]; Log(M) −4.70): 0
ΔKI PIK3CA + EGFR ([3]; Log(M) −4.70): 0.38
ΔKI EGFR [4]: 0
ΔKI EGFR ([4]; Log(M) −4.70): 0
ΔKI PIK3CA [5]: 0
ΔKI PIK3CA ([5]; Log(M) −4.70): 0

CC[C@H](C)C(=O)O[C@H]1C[C@@H](C)C=C2C=C[C@H](C)[C@H](CC[C@@H]3C[C@@H](O)CC(=O)O3)[C@H]21 [lovastatin, Lovastatin]
pharmarray: differential response of BRAF mutated cells versus WT [1]: more resistant

CCCCCCCCCCCCCCCCCCOCC(COC(=O)OC1C(O)C(O)C(O)C(CO)C1O)OC [OGC-023, 1L6-Hydroxymethyl-chiro-inositol-2-(R)-2-O-methyl-3-O-octadecyl-sn-glycerocarbonate]
ΔKI KRAS ([2]; Log(M) −4.14): 0
ΔKI KRAS ([2]; Log(M) −4.62): 0
ΔKI KRAS ([2]; Log(M) −5.10): 0
ΔKI BRAF ([1]; Log(M) −4.14): 0
ΔKI BRAF ([1]; Log(M) −4.62): 0
ΔKI BRAF ([1]; Log(M) −5.10): 0
ΔKI PIK3CA + EGFR ([3]; Log(M) −4.14): 0
ΔKI PIK3CA + EGFR ([3]; Log(M) −4.62): 3.32
ΔKI PIK3CA + EGFR ([3]; Log(M) −5.10): 2.4
ΔKI EGFR ([4]; Log(M) −4.14): 0
ΔKI EGFR ([4]; Log(M) −4.62): 0
ΔKI EGFR ([4]; Log(M) −5.10): 0
ΔKI PIK3CA ([5]; Log(M) −4.14): 0
ΔKI PIK3CA ([5]; Log(M) −4.62): 0
ΔKI PIK3CA ([5]; Log(M) −5.10): 0

C=CCNC1=C2C[C@@H](C)C[C@H](OC)[C@H](O)[C@@H](C)/C=C(\C)[C@H](OC(N)=O)[C@@H](OC)/C=C\C=C(/C)C(=O)NC(=CC1=O)C2=O [17-AAG, 17-Allylamino geldanamycin]
ΔKI BRAF [1]: 0
ΔKI BRAF ([1]; Log(M) −5.70): 0.08
ΔKI BRAF ([1]; Log(M) −6.70): 0
ΔKI PIK3CA + EGFR [3]: 0
ΔKI PIK3CA + EGFR ([3]; Log(M) −5.70): 1.18
ΔKI PIK3CA + EGFR ([3]; Log(M) −6.70): 0
ΔKI EGFR [4]: −11.7
ΔKI EGFR ([4]; Log(M) −5.70): 0
ΔKI EGFR ([4]; Log(M) −6.70): 0
pharmarray: differential response of EGFR mutated cells versus WT ([4]; hTERT-HME1, FIG. 5B, 5E): less susceptible than their WT counterpart
ΔKI PIK3CA [5]: 0
ΔKI PIK3CA ([5]; Log(M) −5.70): 3
ΔKI PIK3CA ([5]; Log(M) −6.70): 0

CC[C@H](C)C(=O)O[C@H]1CCC=C2C=C[C@H](C)[C@H](CC[C@@H]3C[C@@H](O)CC(=O)O3)[C@H]21 [mevastatin, Mevastatin]
pharmarray: differential response of BRAF mutated cells versus WT [1]: more resistant

COc1cc2ncnc(Nc3ccc(F)c(Cl)c3)c2cc1OCCCN1CCOCC1 [gefitinib, Gefitinib]
pharmarray: differential response of KRAS mutated cells versus WT [2]: resistant
pharmarray: differential response of BRAF mutated cells versus WT [1]: resistant

O=c1c(-c2ccc(O)cc2)coc2cc(O)cc(O)c12 [genistein, Genistein]
pharmarray: differential response of EGFR mutated cells versus WT [4]: EGFR sensitive drug cluster

CC/C(=C(\c1ccc(O)cc1)c1ccc(OCCN(C)C)cc1)c1ccccc1 [Tamoxifen 4-Hydroxy-(Z)]
ΔKI KRAS [2]: 0
ΔKI BRAF [1]: 0

Erlotinib mesylate
pharmarray: differential response of KRAS mutated cells versus WT [2]: resistant
pharmarray: differential response of BRAF mutated cells versus WT [1]: resistant
sensitization in DKI cells containing both EGFR and PIK3CA alterations [3]: abrogates the sensitization seen with the EGFR KI alone
growth inhibition of EGFR delE746-A750 KI versus WT cells [4]: preferentially inhibited the growth
pharmarray: differential response of EGFR mutated cells versus WT [4]: inhibit EGFR mutated cells selectively
IC50 ([4]; read-out: IC50 values of erlotinib in EGFR mutant cells): 0.25 ± 0.14 µM
